Drawing on patent US4294757A, “20-O-Acylmaytansinoids” (Takeda Chemical Industries, Ltd, priority 1979, dated 1981), this text covers zone of inhibition and MIC for 13 compounds.

Molecules are shown by their SMILES. Values after ≈ are worked out from the molar mass of the structure shown.

Experiment [1] deals with Hamigera avellanea IFO 7721. The experiment can be described thus: Antifungal activity against Hamigera avellanea IFO 7721, paper disc method. The class given is cell-based. Particulars: IFO7721, paper disc 8 mm diameter, 0.02 ml of a 100 μg/ml solution, pH 7.0, read-out: Antifungal activity, φmm (zone of growth inhibition), Hamigera avellanea IFO 7721. On the procedure: On the other hand, the antifungal activity of the test compound is assayed against Hamigera avellanea IFO 7721 by the paper disc method, employing agar plates [each containing the medium consisting of 3.5 g of disodium phosphate 0.5 g monopotassium phosphate, 5 g yeast extract (Difco), 10 g glucose, 15 g agar, 1000 ml distilled water, and adjusted to pH 7.0]. Thus, on the plates inoculated with the above microorganism, the zones of growth inhibition are determined using paper discs (supplied by Toyo Seisakusho, Japan, thin-type, 8 mm diameter) immersed with 0.02 ml of a 100 μg/ml solution of 20-O-acylmaytansinoid compound (I).

In experiment [2] the test system is Tetrahymena pyriformis W. The experiment in a line: Antiprotozoal activity against Tetrahymena pyriformis W, serial dilution method. Conditions: 28° C., 44 to 48 hours, pH 7.0. The class given is cell-based. The method, then:
Then, with Tetrahymena pyriformis W strain used as the test microorganism and a medium composed of 20 g tryptose peptone (Difco), lg yeast extract, 2 g glucose, 1000 ml distilled water and 10 ml of a 1 M phosphate buffer of pH 7.0 as the assay medium, the microorganism is incubated at 28° C. for 44 to 48 hours, and the growth inhibitory activity of said antibiotic compound is assayed by the serial dilution method.

For `COC1/C=C/C=C(\C)Cc2cc(OC(C)=O)c(Cl)c(c2)N(C)C(=O)CC(OC(=O)C(C)C)C2(C)OC2C(C)C2CC1(O)NC(=O)O2` (stereo not drawn) [PDM-3 20-acetate], the zone of inhibition (usually the size of the clear area around the sample on an inoculated plate) at 100 µg/mL in experiment [1] was found to be 31 mm. The lowest concentration to inhibit growth in experiment [2] (MIC) was 2 µg/mL (≈ 3.02 µM). On to `COC1/C=C/C=C(\C)Cc2cc(OC(=O)c3ccccc3)c(Cl)c(c2)N(C)C(=O)CC(OC(=O)C(C)C)C2(C)OC2C(C)C2CC1(O)NC(=O)O2` (stereo not drawn) [PDM-3 20-benzoate], for which the zone of inhibition at 100 µg/mL in experiment [1] is 35 mm. For `CCCC(=O)Oc1cc2cc(c1Cl)N(C)C(=O)CC(OC(=O)C(C)C)C1(C)OC1C(C)C1CC(O)(NC(=O)O1)C(OC)/C=C/C=C(\C)C2` (stereo not drawn) [PDM-3 20-butyrate], the zone of inhibition at 100 µg/mL in experiment [1] is 40 mm. On the same count and under the same terms, to `C/C=C/C(=O)Oc1cc2cc(c1Cl)N(C)C(=O)CC(OC(=O)C(C)C)C1(C)OC1C(C)C1CC(O)(NC(=O)O1)C(OC)/C=C/C=C(\C)C2` (stereo not drawn) [PDM-3 20-crotonate] belongs 35 mm.

`COC1/C=C/C=C(\C)Cc2cc(OC(=O)C3CCCCC3)c(Cl)c(c2)N(C)C(=O)CC(OC(=O)C(C)C)C2(C)OC2C(C)C2CC1(O)NC(=O)O2` (stereo not drawn) [PDM-3 20-cyclohexylcarboxylate, PDM-3 20-cyclohexanecarboxylate]: the zone of inhibition at 100 µg/mL in experiment [1] was determined as 22 mm. For the compound `COC1/C=C/C=C(\C)Cc2cc(OC(=O)C(C)C)c(Cl)c(c2)N(C)C(=O)CC(OC(=O)C(C)C)C2(C)OC2C(C)C2CC1(O)NC(=O)O2` (stereo not drawn) [PDM-3 20-i-butyrate, PDM-3 20-isobutyrate], the zone of inhibition at 100 µg/mL in experiment [1] was 40 mm.

As for `COC1/C=C/C=C(\C)Cc2cc(OC(=O)CC(C)C)c(Cl)c(c2)N(C)C(=O)CC(OC(=O)C(C)C)C2(C)OC2C(C)C2CC1(O)NC(=O)O2` (stereo not drawn) [PDM-3 20-i-valerate, PDM-3 20-isovalerate], in experiment [1], the zone of inhibition at 100 µg/mL is 44 mm. For the same compound, in experiment [2], the MIC (commonly the least concentration at which growth counts as inhibited) stood at 2 µg/mL (≈ 2.84 µM).

As for `COC1/C=C/C=C(\C)Cc2cc(OC(=O)c3ccccc3Br)c(Cl)c(c2)N(C)C(=O)CC(OC(=O)C(C)C)C2(C)OC2C(C)C2CC1(O)NC(=O)O2` (stereo not drawn) [PDM-3 20-o-bromobenzoate, PDM-3 20-ortho-bromobenzoate], in experiment [1], the zone of inhibition at 100 µg/mL turned out to be 27 mm. `COC1/C=C/C=C(\C)Cc2cc(OC(=O)Cc3ccccc3)c(Cl)c(c2)N(C)C(=O)CC(OC(=O)C(C)C)C2(C)OC2C(C)C2CC1(O)NC(=O)O2` (stereo not drawn) [PDM-3 20-phenylacetate]: in experiment [1], the zone of inhibition at 100 µg/mL stood at 31 mm. For `COC1/C=C/C=C(\C)Cc2cc(OC(=O)Nc3ccccc3)c(Cl)c(c2)N(C)C(=O)CC(OC(=O)C(C)C)C2(C)OC2C(C)C2CC1(O)NC(=O)O2` (stereo not drawn) [PDM-3 20-phenylcarbamate], the zone of inhibition at 100 µg/mL in experiment [1] was found to be 16.5 mm. For the same compound, the MIC in experiment [2] is no more than 1 µg/mL. Turning to `COC1/C=C/C=C(\C)Cc2cc(OC(=O)c3ccccn3)c(Cl)c(c2)N(C)C(=O)CC(OC(=O)C(C)C)C2(C)OC2C(C)C2CC1(O)NC(=O)O2` (stereo not drawn) [PDM-3 20-picolinate], the zone of inhibition at 100 µg/mL in experiment [1] was 21 mm. For the same compound, the MIC in experiment [2] turned out to be 2 µg/mL (≈ 2.75 µM).

As for `CCC(=O)Oc1cc2cc(c1Cl)N(C)C(=O)CC(OC(=O)C(C)C)C1(C)OC1C(C)C1CC(O)(NC(=O)O1)C(OC)/C=C/C=C(\C)C2` (stereo not drawn) [PDM-3 20-propionate], the zone of inhibition at 100 µg/mL in experiment [1] is 34 mm. This compound also had an MIC in experiment [2] of 2 µg/mL (≈ 2.95 µM). As for `CCCCC(=O)Oc1cc2cc(c1Cl)N(C)C(=O)CC(OC(=O)C(C)C)C1(C)OC1C(C)C1CC(O)(NC(=O)O1)C(OC)/C=C/C=C(\C)C2` (stereo not drawn) [PDM-3 20-valerate], the zone of inhibition at 100 µg/mL in experiment [1] worked out at 44 mm.
